Patent publication US6610702B2, “Ammonium salts of inositol hexaphosphate, and uses thereof” (GMP Oxycell, Inc., priority 2000, dated 2003)
Where a name gives a salt, the structure may show the parent alone. Read-outs that look alike come from different tables or passages of the source.

How the values were obtained:
Free Hemoglobin = Free Hemoglobin (Homo sapiens, UniProt P68871); assay: P50 of free hemoglobin in the presence of effector; type: biochemical; settings: fHb
whole blood [1] = assay: P50 of whole blood pre-incubated with effector (Hemox Analyzer); type: cell-based
Experimental: Whole blood was collected from one subject. The blood was stored in a Vacutainer with Solution A (ACD) and stored at 4-8° C.
Preparation of Effector Stock: Effector stock was prepared at 100-120 mM (Molal solution) using water or Bis-Tris Buffer. Effector characteristics prior to incubation were:
Incubation: Whole blood (75-300 μL) was incubated with 200 μL of effector at 37° C. for 5-10 min. (see Summary of Results below).
(§1) Washes: After incubation of whole blood with/without effector, blood cells were washed four times with Saline buffer or HBS (BSA) by centrifugal pelleting to remove exogenous effector and to evaluate hemolysis. After final centrifugation, pellet was not resuspended.
Blood Oxygen Dissociation Reading: Blood Oxygen Dissociation of samples were determined using a Hemox Analizer Model B (TCS Medical Products Company, New Hope, Pa.). The sample chamger contained:
10-20 μL Pelleted Blood Cells incubated with Effector
All readings were made at 36.7-37.2° C. and at pH 7.28-7.32. The P50s were calculated from the Dissociation Curves compared to same day control P50.

red blood cells = assay: hemolysis of red blood cells on incubation of whole blood with effector; type: cell-based
Experimental: as §1

stripped hemoglobin = stripped hemoglobin (Homo sapiens, UniProt P68871); settings: pH 7.4, cited from earlier work
[2] = 1-octanol/aqueous phase partition coefficients of IHP salts measured by 31P-NMR; type: physicochemical
Text: Partition coefficients measurements. We synthesized a first series of IHP derivatives, ionically associated to different aliphatic and aromatic amines as well as amino-esters. Taking advantage of the 6 phosphate groups present in the IHP molecule, we measured, by ^31P-NMR, the partition coefficients of IHP salts between a 1-octanol phase and two different aqueous phases: water and human serum. In FIG. 11 are represented the structures of the different amines preassociated to IHP and the corresponding partition coefficients Kow and Kos. These coefficients are measured after equilibration, at a concentration of 30 mM, close to the typical concentration employed for the biological evaluations (the standard concentration used for O2-dissociation curve measurements is 22 mM).
Choice of the aqueous phases. […] To be even closer to physiological conditions, we pushed this investigation further by measuring 1-octanol/human serum partition coefficients Kos. […] Therefore, we only measured Kos's when Kow values were significant. To illustrate this observation we compared the partitions of 2 IHP derivatives, SV75 and SV131, in different aqueous systems: water, artificial serum (for its composition, see the Experimental section) without and with albumin, and human serum.
Human serum was purchased at the “Centre de Transfusion Sanguine de Strasbourg”. Artificial serum was based on blood composition : [Na^+]=140 mM, [Mg^2+]=1 mM, [K^+]=5 mM, [Ca^2+]=1 mM, [Cl^−]=106 mM, [PO4^3−]=1 mM, [SO4^2−]=0.5 mM, [CO3^2−]=30 mM, [Br^−]=0.5 mM, bovine serum albumin (fraction V, >98%) 30 g.l^−1, pH=7.41.
Partition coefficients. […] 1 ml of 1-octanol was then added and each sample was shaken at 36 rpm during 12 hours. The equilibrated biphasic solutions were centrifuged for 2 hours at 3000 rpm. 350 μl of the octanolic phase was first taken off with a syringe and put directly in the NMR tube. 350 μl of the aqueous phase was then taken off. ^31P-NMR spectra were performed on a Bruker AC-300 apparatus. An external standard (triphenylphosphine oxide, 60 mM in d6-DMSO) was placed inside the NMR tubes to allow both the locking process of the apparatus and an accurate integration of IHP peaks. Partition coefficients were determined as the ratio of IHP integrations, relative to the external standard, in the octanol and aqueous phases.

whole blood [3] = assay: P50 shift on whole blood, first library (Hb-O2 dissociation curve); type: cell-based; settings: 220 mOsM, control IHP sodium form, 37° C.
Experimental: In FIG. 14 the different IHP derivatives have been classified by amine types, the number of cations per IHP molecule as well as the reference number are indicated beside each amine drawings. The P50 shift values have to be compared to the control experiment (underlined), corresponding to a test performed in the same conditions but with IHP, sodium form. P50 values have been measured in Professor Nicolau's laboratory in Boston (bioassay conditions: 75 μl of whole blood was incubated 2 minutes with 300 μl of a 50 mM solution of IHP derivatives. The system was then washed and 20 μl were used for measurement of the Hb-O2 dissociation curve at 37° C.). See also FIGS. 15-17 for tables of P50 values at various osmolarities of whole blood, and free hemoglobin that has been pre-incubated with various ammonium salts of inositol hexaphosphate.

[4] = 0.25 umoles EFF, control P50 16 mmHg, 37° C.
[5] = 1-octanol/water, concentration of 30 mM

Sequence of Free Hemoglobin (P68871 2-147 limits assumed): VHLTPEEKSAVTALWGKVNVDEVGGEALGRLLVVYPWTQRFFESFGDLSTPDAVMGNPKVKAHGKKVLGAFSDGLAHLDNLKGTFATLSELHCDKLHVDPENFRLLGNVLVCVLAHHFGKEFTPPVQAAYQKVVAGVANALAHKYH
Sequence of Free Hemoglobin (P69905 2-142 partner limits assumed): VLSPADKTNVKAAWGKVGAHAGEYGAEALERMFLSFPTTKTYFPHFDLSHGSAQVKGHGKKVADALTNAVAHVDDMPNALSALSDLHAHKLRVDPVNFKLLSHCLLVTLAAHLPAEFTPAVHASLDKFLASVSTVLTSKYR
Sequence of stripped hemoglobin (P68871 2-147 limits assumed): as the sequence (P68871 2-147 limits assumed) above
Sequence of stripped hemoglobin (P69905 2-142 partner limits assumed): as the sequence (P69905 2-142 partner limits assumed) above

Inositol hexaphosphate, penta cyclohexyl-(1,3-bismethylammonium) salt [SV 94]
P50 mmHg EFF (free hemoglobin) (Free Hemoglobin; [4]): 41.0 mmHg

NC1CCCCC1N.NC1CCCCC1N.NC1CCCCC1N.NC1CCCCC1N.NC1CCCCC1N.O=P(O)(O)O[C@H]1[C@H](OP(=O)(O)O)[C@@H](OP(=O)(O)O)[C@H](OP(=O)(O)O)[C@@H](OP(=O)(O)O)[C@H]1OP(=O)(O)O [SV 92, Inositol hexaphosphate, penta (±)-(trans)-1,2-cyclohexyldiammonium salt]
P50 mmHg EFF:WB (whole blood [1]; effector 84 mOsM, EFF:WB 1:0.375, pH 7.2-7.3, control 41.4): 58.5 mmHg
P50 mmHg EFF:WB (whole blood [1]; effector 336 mOsM, EFF:WB 1:1.5, pH 7.2-7.3, control 40.5): 38.7 mmHg
P50 mmHg EFF (free hemoglobin) (Free Hemoglobin; [4]): 45.0 mmHg

CCC(C)C(N)C(=O)OC(C)(C)C.CCC(C)C(N)C(=O)OC(C)(C)C.CCC(C)C(N)C(=O)OC(C)(C)C.CCC(C)C(N)C(=O)OC(C)(C)C.CCC(C)C(N)C(=O)OC(C)(C)C.CCC(C)C(N)C(=O)OC(C)(C)C.CCC(C)C(N)C(=O)OC(C)(C)C.CCC(C)C(N)C(=O)OC(C)(C)C.O=P(O)(O)OC1C(OP(=O)(O)O)C(OP(=O)(O)O)C(OP(=O)(O)O)C(OP(=O)(O)O)C1OP(=O)(O)O (stereo not shown) [SV57, Inositol hexaphosphate, octa isoleucine-tbuthyl-ester]
hemolysis of red blood cells (red blood cells; first library bioassay on whole blood): fast hemolysis

O=C(O)C(COP(=O)(O)O)OP(=O)(O)O (stereo not shown) [2,3-Diphosphoglycerate]
half-saturation pressure P(O2) (½) of stripped hemoglobin (stripped hemoglobin; 25 C., stripped hemoglobin alone 4.3): 12.0 mm Hg
half-saturation pressure P(O2) (½) of stripped hemoglobin (stripped hemoglobin; 37 C., stripped hemoglobin alone 9.3): 23.7 mm Hg

NC1CCCCCC1 [SV75, Inositol hexaphosphate, nona-cycloheptylammonium salt]
Koas (artificial serum with albumin) ([2]; 1-octanol/artificial serum with albumin, at 18 mM): 0.041
Koa (artificial serum without albumin) ([2]; 1-octanol/artificial serum without albumin, at 18 mM): 0.088
Kos (human serum) ([2]; 1-octanol/human serum, at 18 mM): 0.031
Kow (water) ([2]; 1-octanol/water, at 18 mM): 0.411

NC1CCCCCCC1 [cyclooctylammoniums]
equivalents of cyclooctylammoniums required to reach a Kos value equal to 1 ([2]; constant IHP concentration 22 mM, human serum/octanol, IHP sodium salt in serum, ammonium hydrochloride in organic phase): 8 equivalents

C1CCCC(NCCN(CCNC2CCCCCC2)CCNC2CCCCCC2)CC1.C1CCCC(NCCN(CCNC2CCCCCC2)CCNC2CCCCCC2)CC1.C1CCCC(NCCN(CCNC2CCCCCC2)CCNC2CCCCCC2)CC1.O=P(O)(O)O[C@H]1[C@H](OP(=O)(O)O)[C@@H](OP(=O)(O)O)[C@H](OP(=O)(O)O)[C@@H](OP(=O)(O)O)[C@H]1OP(=O)(O)O [SV137, Inositol hexaphosphate, tris tri-(N-cycloheptyl-2-amino-ethyl)-ammonium salt]
Kos ([2]; 1-octanol/human serum, concentration of 30 mM): 0.64
Kow [2, 5]: 2.70
P50 mmHg EFF:WB (whole blood [1]; effector 268 mOsM, EFF:WB 1:0.375, pH 7.2-7.3, control 29.5): 32.0 mmHg

NC1CCCCC1.NC1CCCCC1.NC1CCCCC1.NC1CCCCC1.NC1CCCCC1.NC1CCCCC1.NC1CCCCC1.NC1CCCCC1.NC1CCCCC1.NC1CCCCC1.NC1CCCCC1.O=P(O)(O)OC1C(OP(=O)(O)O)C(OP(=O)(O)O)C(OP(=O)(O)O)C(OP(=O)(O)O)C1OP(=O)(O)O (stereo not shown) [SV81, Inositol hexaphosphate, undeca-cyclohexylammonium salt]
shift of the P50 value (compared to the control experiment) (whole blood [3]): 50%

NC1CCCC1.NC1CCCC1.NC1CCCC1.NC1CCCC1.NC1CCCC1.NC1CCCC1.NC1CCCC1.NC1CCCC1.NC1CCCC1.NC1CCCC1.NC1CCCC1.O=P(O)(O)OC1C(OP(=O)(O)O)C(OP(=O)(O)O)C(OP(=O)(O)O)C(OP(=O)(O)O)C1OP(=O)(O)O (stereo not shown) [SV78, Inositol hexaphosphate, undeca-cyclopentylammonium salt]
Kow [2, 5]: < 10^−3

NC1CCCCC1.NC1CCCCC1.NC1CCCCC1.NC1CCCCC1.NC1CCCCC1.NC1CCCCC1.NC1CCCCC1.NC1CCCCC1.NC1CCCCC1.O=P([O-])([O-])OC1C(OP(=O)([O-])O)C(OP(=O)(O)O)C(OP(=O)(O)O)C(OP(=O)(O)O)C1OP(=O)(O)O.[Na+].[Na+].[Na+] (stereo not shown) [ICP6, nona cyclohexylammonium tri sodium inositol hexaphosphate]
P50 EFF:WB (whole blood [1]; EFF 30 mM, EFF:WB 22 mM, 220 mOsM, pH 7.23, ratio 1:0.375, control WB 27.5, 37 C.): 39 mmHg

C1CCC(N2CCCCC2)CC1.C1CCC(N2CCCCC2)CC1.C1CCC(N2CCCCC2)CC1.C1CCC(N2CCCCC2)CC1.C1CCC(N2CCCCC2)CC1.C1CCC(N2CCCCC2)CC1.C1CCC(N2CCCCC2)CC1.C1CCC(N2CCCCC2)CC1.C1CCC(N2CCCCC2)CC1.O=P(O)(O)O[C@H]1[C@H](OP(=O)(O)O)[C@@H](OP(=O)(O)O)[C@H](OP(=O)(O)O)[C@@H](OP(=O)(O)O)[C@H]1OP(=O)(O)O [SV 97, Inositol hexaphosphate, nona N-cyclohexyl-piperidinium salt]
P50 mmHg EFF:WB (whole blood [1]; effector 111 mOsM, EFF:WB 1:0.375, pH 7.2-7.3, control 41.5): 49.7 mmHg
P50 mmHg EFF:WB (whole blood [1]; effector 343 mOsM, EFF:WB 1:1.5, pH 7.2-7.3, control 40.5): 40.0 mmHg
P50 mmHg EFF (free hemoglobin) (Free Hemoglobin; [4]): 46.7 mmHg

Inositol hexaphosphate, octa menthyl-1,8-diammonium salt [SV 89]
P50 mmHg EFF (free hemoglobin) (Free Hemoglobin; [4]): 41.7 mmHg

C1CCCC(NCCCN2CCN(CCCNC3CCCCCCC3)CC2)CCC1.C1CCCC(NCCCN2CCN(CCCNC3CCCCCCC3)CC2)CCC1.C1CCCC(NCCCN2CCN(CCCNC3CCCCCCC3)CC2)CCC1.O=P(O)(O)O[C@H]1[C@H](OP(=O)(O)O)[C@@H](OP(=O)(O)O)[C@H](OP(=O)(O)O)[C@@H](OP(=O)(O)O)[C@H]1OP(=O)(O)O [SV141, Inositol hexaphosphate, tri N,N′-di-(3-(N-cyclooctyl-amino)-propyl)-piperazinium salt]
P50 mmHg EFF:WB (whole blood [1]; effector 221 mOsM, EFF:WB 1:1.5, pH 7.1-7.2, control 25): 25.0 mmHg
P50 mmHg EFF (free hemoglobin) (Free Hemoglobin; ratio 1:1 (2.5 mM:2.5 mM), pH 7.1-7.2, control P50 10.5 mmHg): 22.0 mmHg
lysis of whole blood incubated with effector (red blood cells; WB, EFF:WB 1:0.375, no sufficient RBC pellet): Lyses

C1CCC(NCCN(CCNC2CCCCC2)CCNC2CCCCC2)CC1.C1CCC(NCCN(CCNC2CCCCC2)CCNC2CCCCC2)CC1.C1CCC(NCCN(CCNC2CCCCC2)CCNC2CCCCC2)CC1.O=P(O)(O)O[C@H]1[C@H](OP(=O)(O)O)[C@@H](OP(=O)(O)O)[C@H](OP(=O)(O)O)[C@@H](OP(=O)(O)O)[C@H]1OP(=O)(O)O [SV102, Inositol hexaphosphate, tris tri-(N-cyclohexyl-2-amino-ethyl)-ammonium salt]
P50 mmHg EFF:WB (whole blood [1]; effector 82 mOsM, EFF:WB 1:0.375, pH 7.2-7.3, control 41.5): 75.0 mmHg
P50 mmHg EFF:WB (whole blood [1]; effector 321 mOsM, EFF:WB 1:1.5, pH 7.2-7.3, control 40.5): 39.5 mmHg
P50 mmHg EFF (free hemoglobin) (Free Hemoglobin; [4]): 41.0 mmHg
